# Like-named read-outs stand apart in the source and are kept apart here.
# Assays:
# [1] = target: T1, Recombinant Human Poly(ADP-Ribose) Polymerase (PARP) (Homo sapiens, UniProt P09874); experiment: PARP1 inhibition assay ([3H]-NAD+, biotinylated histone H1, FlashPlate/SPA); format: biochemical; conditions: from inhibition curves at various substrate concentrations
# T1 construct: purchased Trevigen, Gaithersburg, Md; host or cells: E. coli
# Experimental: Nicotinamide[2,5′,8-3H]adenine dinucleotide and strepavidin SPA beads were purchased from Amersham Biosiences (UK) Recombinant Human Poly(ADP-Ribose) Polymerase (PARP) purified from E. coli and 6-Biotin-17-NAD^+, were purchase from Trevigen, Gaithersburg, Md. NAD^+, Histone, aminobenzamide, 3-amino benzamide and Calf Thymus DNA (dcDNA) were purchased from Sigma, St. Louis, Mo. […] Biotinylated histone H1 was prepared by treating the protein with Sulfo-NHS-LC-Biotin from Pierce Rockford, Ill. […] Streptavidin coated (FlashPlate Plus) microplates were purchased from Perkin Elmer, Boston, Mass.
# PARP1 assay was conducted in PARP assay buffer containing 50 mM Tris pH 8.0, 1 mM DTT, 4 mM MgCl2. […] 170 μl of the stopped reaction mixtures were transferred to streptavidin Flash Plates, incubated for 1 hr, and counted using a TopCount microplate scintillation counter.
# HCT-116 tumors = HCT-116 tumors in nude mice, combination with radiotherapy; format: in vivo; conditions: combination with radiotherapy (2 Gy/day, 10 doses) vs radiotherapy or compound alone; 6.25, 12.5 or 25 mg/kg/day i.p. OMPs 14 days; FIG. 1
# Experimental: This study was done in nude mice bearing HCT-116 tumors in the leg. Three days (−3) prior to the beginning of radiotherapy, mice were implanted i.p with OMPs delivering A-620223 at 0, 6.25, 12.5, or 25 mg/kg/day for 14 days. Starting day 0 mice received radiation treatment (2 Gy/day) for 10 doses alone or in combination with the 3 different doses of 2-(N-propylpiperidin-4-yl)benzimidazole-4-carboxamide.
# [2] = test system: DoHH-2 flank tumor xenograft; conditions: for efficacy at reducing the Mean Tumor Volume, alone: single agent
# Experimental: Animals were size matched on day 15 to an approximate tumor volume of 503 mm^3.
# Group mouse weights were recorded three times a week to monitor for weight loss due to toxicity or excessive tumor burden.
# [3] = test system: MDA-231-LN-luc cells in the brain striatum; conditions: for survival to 300% tumor change endpoint: Kaplan-Meier, Logrank, FIG. 23
# [4] = test system: PC3M-Luc human prostate carcinoma; experiment: Orthotopic PC3M-Luc human prostate carcinoma model (BLI); format: in vivo, male SCID-C.B17 mice; conditions: vs vehicles, p<0.01
# Experimental: Bioluminescent PC-3M-luciferase-C6 osteolytic human prostate cancer cells, constitutively expressing luciferase (Caliper Life Sciences, Hopkinton, Mass.) were orthotopically injected into the prostates of 10-week-old male SCID-C.B17 mice (C.B-17/IcrCrl-scid-BR, Charles River Labs). Mice were housed in a facility with constant humidity, temperature and a 12-h light-dark cycle. Mice were anesthetized with intramuscular injections of ketamine (40 mg/kg) and rompum (5 mg/kg) before surgery. The surgical region was shaved and sterilized with iodine and alcohol swabs. A lower midline incision was made to access the prostate. The left lobe of the dorsal prostate was injected with 1×10^6 PC3M-Luc cells (975 photon/second/cell) in 30 μl (1:1 matrigel, Collaborative Biomedical Products, Bedford, Mass.). The peritoneal cavity was closed with 4-0 suture and skin incision was closed with clip.
# In vivo bioluminescent image (BLI) was performed with an IVIS® Imaging System (Caliper Life Sciences, Hopkinton, Mass.). […] Images and measurements of bioluminescent signals were acquired and analyzed using Living Image® software (Caliper Life Sciences, Hopkinton, Mass.). Uniform region of interests (ROIs) were used across all groups and time points to achieve quantification of bioluminescent signal. […] The mice were then monitored with this system at weekly intervals. […]
# MX-1 flank xenograft = conditions: TMZ at 50 and 12.5 mg/kg/day
# Excerpt: All mice were ear tagged. […] At various intervals following tumor cell inoculation, the individual tumor dimensions were serially measured using calibrated microcalipers and the tumor volumes calculated according to the formula V=L×W^2/2 (V:volume, L:length, W:width). Mice were humanely euthanized when the tumor volumes reached a predetermined size.
# [5] = test system: MX-1 breast carcinoma xenograft; experiment: MX-1 breast carcinoma xenograft, combination with carboplatin; format: in vivo, scid mice
# Excerpt: This cell line was derived from a person with a poorly differentiated mammary carcinoma.
# Data presented in FIG. 4 are mean ±S.E.M. of 8-10 mice per treatment group.
# [6] = test system: HSB T-cell ALL; JM1 pre-B ALL; P115 primary AML cells; experiment: TMZ and ABT-888 combinations in leukemia cells (FIGS. 9-11); conditions: differing amounts of TMZ and ABT-888
# B16F10 murine melanoma = experiment: B16F10 murine melanoma, combination with TMZ; format: in vivo, C57BL/6 mice; conditions: A-861695 25, 12.5 or 3.1 mg/kg/day p.o. b.i.d. + TMZ 62.5 mg/kg/day p.o. q.d. X5; FIG. 2
# Experimental: This study was done on mice with B 16F10 murine melanoma. Mice were divided into six treatment groups with 8-10 mice per group. See figure two for treatment groups. B16F10 cells were injected s.c. into C57BL/6 mice on day 0. Dosing was initiated on day one. A-861695 was administered p.o., b.i.d. on days 1-14. On days 3-7 temozolomide (TMZ) was administered p.o., q.d. (for the groups receiving both TMZ and A-861695, TMZ was given two hours after the A-861695 was administered).
# [7] = test system: MX-1 breast carcinoma xenograft; experiment: MX-1 breast carcinoma xenograft, combination with cisplatin; format: in vivo, nude mice; conditions: FIG. 5
# Experimental: In this study the efficacy of A-861695 in combination with cisplatin was evaluated in the MX-1 breast carcinoma xenograft model in nude mice. Tumors were size-matched to 100 mm^3 on day 16 and PARP inhibitor therapy (p.o., b.i.d. x8) was initiated the same day. A single dose of cisplatin at 6.0 mg/kg/day was administered i.p. day 18. Data, shown in FIG. 5, are mean ±S.E.M. of 9 mice per treatment group.
# [8] = Valproic acid and radiotherapy (FIG. 6)
# T1 sequence (P09874 whole entry): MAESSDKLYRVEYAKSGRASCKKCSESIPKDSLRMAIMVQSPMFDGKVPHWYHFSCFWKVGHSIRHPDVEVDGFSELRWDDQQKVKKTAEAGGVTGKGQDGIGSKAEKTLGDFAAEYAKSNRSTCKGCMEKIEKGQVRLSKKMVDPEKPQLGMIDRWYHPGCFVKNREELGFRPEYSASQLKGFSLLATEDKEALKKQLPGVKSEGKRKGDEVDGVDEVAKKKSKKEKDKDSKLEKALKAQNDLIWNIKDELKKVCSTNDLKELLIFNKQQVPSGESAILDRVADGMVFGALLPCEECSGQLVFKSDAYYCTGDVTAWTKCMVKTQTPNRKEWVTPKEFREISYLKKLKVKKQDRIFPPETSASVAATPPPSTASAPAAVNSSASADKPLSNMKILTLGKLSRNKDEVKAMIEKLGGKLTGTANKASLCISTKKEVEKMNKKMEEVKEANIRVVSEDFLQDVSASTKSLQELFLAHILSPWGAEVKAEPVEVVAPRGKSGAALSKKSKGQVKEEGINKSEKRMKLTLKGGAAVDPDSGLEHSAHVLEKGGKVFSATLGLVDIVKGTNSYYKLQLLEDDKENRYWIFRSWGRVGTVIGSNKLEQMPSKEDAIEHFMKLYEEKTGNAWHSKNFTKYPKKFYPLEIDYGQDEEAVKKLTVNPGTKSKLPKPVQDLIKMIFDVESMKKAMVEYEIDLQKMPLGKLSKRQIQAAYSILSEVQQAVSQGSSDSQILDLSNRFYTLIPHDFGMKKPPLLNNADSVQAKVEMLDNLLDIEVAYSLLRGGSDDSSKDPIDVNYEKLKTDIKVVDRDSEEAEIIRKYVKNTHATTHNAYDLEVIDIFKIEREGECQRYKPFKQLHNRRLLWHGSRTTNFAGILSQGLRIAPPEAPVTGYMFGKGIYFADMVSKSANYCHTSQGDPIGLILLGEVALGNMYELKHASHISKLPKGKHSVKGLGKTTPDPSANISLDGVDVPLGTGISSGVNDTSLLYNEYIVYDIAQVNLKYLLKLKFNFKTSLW
smiles,measurement,setting,value
CCCN1CCC(c2nc3cccc(C(N)=O)c3[nH]2)CC1 [2-(N-propylpiperidin-4-yl)benzimidazole-4-carboxamide],Ki,[1],0.0086 µM
same,reduction of tumor size,HCT-116 tumors,significant improvement in the reduction of tumor size
"Cn1nnc2c(C(N)=O)ncn2c1=O [TMZ, temozolomide]",Observations (toxicity assessment),"[2]; female, Scid, mouse, in vivo",Slight
same,"efficacy at reducing the Mean Tumor Volume, alone",[2],no efficacy
same,survival to 300% tumor change endpoint,[3],significantly increased survival
same,Weight loss (Observations),[3]; after last dose of 2nd cycle,> 10% after last
same,Mortality,[3]; dead/total mice,0/11
same,efficacy after first treatment schedule (day 30),[4],significantly better than their vehicles
"C[C@]1(c2nc3c(C(N)=O)cccc3[nH]2)CCCN1 [ABT-888, 2-[(2R)-2-methylpyrrolidin-2-yl]-1H-benzimidazole-4-carboxamide]",effect on toxicity of TMZ (% mean body weight loss),MX-1 flank xenograft,did not exacerbate the toxicity of TMZ
same,Observations (toxicity assessment),"[2]; Scid female mice, same dosing",None
same,"efficacy at reducing the Mean Tumor Volume, alone",[2],no efficacy
same,potentiation of carboplatin (tumor volumes),[5]; A-861695 25 mg/kg/day s.c. OMPs 14 days + carboplatin 10 and 15 mg/kg/day,pronounced potentiation of carboplatin
same,survival to 300% tumor change endpoint,[3],profoundly improved survival compared to TMZ treatment alone
same,blood brain barrier crossing,"rat, in vivo",crosses the blood brain barrier
same,effect of co-administration of TMZ on plasma PK profile,tumor-bearing rats,did not alter the plasma PK profile
same,effect on toxicity of TMZ,[6],enhancement of toxicity of TMZ
same,potentiation of TMZ efficacy,B16F10 murine melanoma,significantly potentates the TMZ efficacy in a dose dependent manner
same,potentiation of cisplatin activity,[7],pronounced potentiation of cisplatin activity
CCCC(CCC)C(=O)O [valproic acid],effect on radiotherapy,[8],can enhance the effects of radiotherapy
N.N.O=C([O-])C1(C(=O)[O-])CCC1.[Pt+2] [carboplatin],tumor inhibition as a single agent,"[5]; carboplatin 5, 10, 15 mg/kg/day i.p. day 20, 24, 27, FIG. 4",dose-dependent tumor inhibition
same,"tumor volume course, monotherapy",[5]; carboplatin monotherapy 10 mg/kg/day,only delayed tumor growth
NC(=O)c1cccc2[nH]c(C3CCCN(C4CCCCC4)CC3)nc12 (stereo not drawn) [2-(1-cyclohexylazepan-4-yl)-1H-benzimidazole-4-carboxamide],Ki,[1],0.0048 µM
CC(CCc1ccccc1)N1CCC(C)(c2nc3c(C(N)=O)cccc3[nH]2)C1 (stereo not drawn) [2-[3-methyl-1-(1-methyl-3-phenylpropyl)pyrrolidin-3-yl]-1H-benzimidazole-4-carboxamide],Ki,[1],0.012 µM
NC(=O)c1cccc2[nH]c(C3CCN3C3CCCCC3)nc12 (stereo not drawn) [2-(1-cyclohexylazetidin-2-yl)-1H-benzimidazole-4-carboxamide],Ki,[1],0.245 µM
